Consider 17 compounds from ChEMBL document CHEMBL1201862, “PubChem BioAssay data set” (2004).

The target in assay [1] is T1, Sentrin-specific protease 8 (Homo sapiens, UniProt Q96LD8).
T1 sequence (Q96LD8 whole entry): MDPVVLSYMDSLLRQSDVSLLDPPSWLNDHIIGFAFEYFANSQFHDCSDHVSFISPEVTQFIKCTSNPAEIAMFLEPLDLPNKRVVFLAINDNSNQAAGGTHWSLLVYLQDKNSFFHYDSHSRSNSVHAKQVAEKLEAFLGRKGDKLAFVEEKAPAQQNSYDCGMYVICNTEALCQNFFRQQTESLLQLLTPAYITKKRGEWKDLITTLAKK
The format is functional.

A further assay deals with T2, Caspase-3 (Homo sapiens, UniProt P42574).
T2 sequence (P42574 whole entry): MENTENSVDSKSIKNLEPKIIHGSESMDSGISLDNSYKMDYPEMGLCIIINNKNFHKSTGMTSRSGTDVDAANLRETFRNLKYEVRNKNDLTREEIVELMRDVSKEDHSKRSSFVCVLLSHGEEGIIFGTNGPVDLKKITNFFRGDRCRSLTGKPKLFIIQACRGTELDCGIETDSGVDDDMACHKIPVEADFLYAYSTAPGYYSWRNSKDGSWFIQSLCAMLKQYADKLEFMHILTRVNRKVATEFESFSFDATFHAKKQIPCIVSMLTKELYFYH
The format is functional.

Assay [2] has as its target T3, Sentrin-specific protease 6 (Homo sapiens, UniProt Q9GZR1).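 Note: Luminescence-based dose-response confirmatory assay of SENP6 inhibition, following up an ultra-high-throughput screen.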
T3 sequence (Q9GZR1 whole entry): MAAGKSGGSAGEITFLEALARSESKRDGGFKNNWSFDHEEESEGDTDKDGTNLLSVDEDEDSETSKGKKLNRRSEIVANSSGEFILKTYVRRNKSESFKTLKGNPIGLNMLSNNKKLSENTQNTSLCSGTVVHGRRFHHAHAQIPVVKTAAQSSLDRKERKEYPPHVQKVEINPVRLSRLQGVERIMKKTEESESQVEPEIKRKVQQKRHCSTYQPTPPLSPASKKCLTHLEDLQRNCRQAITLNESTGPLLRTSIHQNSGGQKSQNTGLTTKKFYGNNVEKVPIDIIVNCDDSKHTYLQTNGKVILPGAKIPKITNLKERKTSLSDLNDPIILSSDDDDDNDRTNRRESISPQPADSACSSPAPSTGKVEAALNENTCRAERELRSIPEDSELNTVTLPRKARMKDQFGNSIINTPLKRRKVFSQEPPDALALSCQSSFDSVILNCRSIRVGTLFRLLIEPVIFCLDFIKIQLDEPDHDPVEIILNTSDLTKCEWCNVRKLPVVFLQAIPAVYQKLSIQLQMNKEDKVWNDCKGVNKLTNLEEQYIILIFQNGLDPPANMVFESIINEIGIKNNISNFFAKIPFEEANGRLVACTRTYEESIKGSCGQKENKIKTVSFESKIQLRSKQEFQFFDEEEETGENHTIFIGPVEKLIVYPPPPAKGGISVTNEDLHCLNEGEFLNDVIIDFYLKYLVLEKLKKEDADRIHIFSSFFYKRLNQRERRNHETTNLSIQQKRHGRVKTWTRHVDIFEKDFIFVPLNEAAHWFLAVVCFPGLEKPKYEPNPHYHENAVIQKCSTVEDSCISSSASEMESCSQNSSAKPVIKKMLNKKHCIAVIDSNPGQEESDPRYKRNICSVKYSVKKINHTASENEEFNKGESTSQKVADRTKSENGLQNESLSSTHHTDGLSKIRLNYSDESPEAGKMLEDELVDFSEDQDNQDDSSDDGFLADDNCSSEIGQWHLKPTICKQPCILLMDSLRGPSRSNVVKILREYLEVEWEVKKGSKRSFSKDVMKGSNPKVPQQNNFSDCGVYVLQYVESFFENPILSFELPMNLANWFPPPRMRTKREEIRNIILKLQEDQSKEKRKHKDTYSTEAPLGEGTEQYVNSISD
The format is functional.

In assay [3] the target is T4, Sentrin-specific protease 7 (Homo sapiens, UniProt Q9BQF6).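 Note: Luminescence-based dose-response confirmation of ultra-high-throughput screening hits, measuring inhibition of SENP7.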
T4 sequence (Q9BQF6 whole entry): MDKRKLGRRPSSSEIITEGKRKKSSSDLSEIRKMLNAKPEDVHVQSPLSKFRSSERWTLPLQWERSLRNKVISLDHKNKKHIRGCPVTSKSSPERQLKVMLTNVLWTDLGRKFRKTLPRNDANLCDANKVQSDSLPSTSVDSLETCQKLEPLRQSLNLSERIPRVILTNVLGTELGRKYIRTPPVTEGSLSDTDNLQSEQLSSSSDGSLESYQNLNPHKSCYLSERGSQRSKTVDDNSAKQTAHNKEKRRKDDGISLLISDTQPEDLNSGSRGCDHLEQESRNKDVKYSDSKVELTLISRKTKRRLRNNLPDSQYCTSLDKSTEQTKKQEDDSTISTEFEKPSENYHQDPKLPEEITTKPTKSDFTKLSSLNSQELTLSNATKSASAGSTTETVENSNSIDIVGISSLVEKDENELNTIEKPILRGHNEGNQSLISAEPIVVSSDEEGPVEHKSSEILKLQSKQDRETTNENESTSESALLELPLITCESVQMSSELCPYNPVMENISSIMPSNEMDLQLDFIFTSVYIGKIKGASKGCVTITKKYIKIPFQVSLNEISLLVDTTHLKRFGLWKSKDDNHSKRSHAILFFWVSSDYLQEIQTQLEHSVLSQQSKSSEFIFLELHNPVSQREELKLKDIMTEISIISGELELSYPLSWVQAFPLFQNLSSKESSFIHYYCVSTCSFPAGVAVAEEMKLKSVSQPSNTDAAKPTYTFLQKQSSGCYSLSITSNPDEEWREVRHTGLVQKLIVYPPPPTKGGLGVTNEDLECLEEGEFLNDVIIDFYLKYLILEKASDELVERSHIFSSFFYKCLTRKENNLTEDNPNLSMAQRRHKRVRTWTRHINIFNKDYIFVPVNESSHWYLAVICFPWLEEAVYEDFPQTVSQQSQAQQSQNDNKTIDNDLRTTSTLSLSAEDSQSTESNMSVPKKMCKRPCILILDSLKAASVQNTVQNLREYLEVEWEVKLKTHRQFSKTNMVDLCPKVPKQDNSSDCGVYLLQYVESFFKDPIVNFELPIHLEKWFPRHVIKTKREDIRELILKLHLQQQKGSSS
The format is functional.

Assay [4] in a line: HIV-1 AD8 envelope cell-cell fusion blockers – cherry-pick, dose response (AID 652062).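 Note: luciferase signal from cell-cell fusion driven by HIV-1 clade B AD8 Env; potency is for inhibitors of fusion seen as a drop in luminescence.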 Format: functional, cell-based.
Assay [5] can be described thus: off-target signal loss in HeLa-CEM21 co-culture – HeLa F-luc CTL cells, cherry-picked, counter-screen for HIV-1 Env fusion inhibitor project, dose response (AID 652040).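 Note: potency for signal decrease marking cytotoxic or nonspecific inhibition.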 Format: functional, cell-based. (In general: A counterscreen serves to expose hits that act by an unwanted route or on another target.)
Assay [6] in a line: blockers of HIV-1 ZM109 envelope-driven cell-cell fusion – HeLa effector, CEM target cells, luciferase, cherry-pick, dose response (AID 652058).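 Note: luciferase signal from HIV-1 Env mediated cell-cell fusion of effector and target cells.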 The format is functional, cell-based.
Assay [7] can be described thus: blockers of HIV-1 envelope-mediated cell-cell fusion – cherry-pick, dose response (AID 652057). The format is functional, cell-based.
Assay [8] can be described thus: A Cell Based Secondary Assay To Explore Cytotoxicity of Compounds that Sensitize Mycobacterium Tuberculosis to Beta-Lactam Antibiotics. The format is functional.
Assay [9] concerns the target T1, Sentrin-specific protease 8. Format: functional. This is another data set of the same source.
Assay [10] concerns the target FAD-linked sulfhydryl oxidase ALR (Homo sapiens, UniProt P55789). Kind of assay: ALR-catalysed DTT oxidation blockers – biochemical, H2O2 detection, luminescence, cherry-pick, dose response (AID 493248).
For assay [11], the target named is T1, Sentrin-specific protease 8. Format: functional. This is another data set of the same source.
A short description of assay [12]: loss of viability in HepG2 cells – cell-based, CellTiter-Glo, cherry-picked, cytotoxicity control for Shn3 inhibitor project, dose response (AID 624134). Format: functional.
Assay [13] is described as follows: non-specific 3'UTR reporter inhibition in Clone20-Shn3RL – cell-based, Renilla luciferase, cherry-picked, counter-screen for Shn3 inhibitor project, dose response (AID 624133). Format: functional.
Assay [14] can be described thus: Luminescence Cell-Based Dose Retest to Confirm Inhibitors of Cancer Stem Cells. [Related pubchem assays (depositor defined):AID2717, AID2721]. The format is functional. As to conditions: Homo sapiens.
Assay [15] in a line: reduction of Shn3 3'UTR-driven luciferase in osteoblasts – cell-based, Clone20 osteoblasts, firefly luciferase, cherry-picked, dose response (AID 624132).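 Note: firefly luciferase luminescence from reporter carrying the Shn3 3'UTR in osteoblasts.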 The format is functional.
Assay [16] can be described thus: microbe, parasite or virus in culture. The format is functional. As to conditions: Mycobacterium tuberculosis.
Assay [17] can be described thus: OVCAR8 cell viability loss – plate reader, dry powder samples, PAX8 project, dose response (AID 743197). As to conditions: OVCAR-8. Format: functional, cell-based.
A short description of assay [18]: OVCAR-3 cell viability loss – plate reader, dry powder samples, PAX8 inhibitor project, dose response (AID 743044). The format is functional, cell-based.
In another assay the target is Paired box protein Pax-8 (Homo sapiens, UniProt Q06710). Kind of assay: PAX8 transcriptional activity inhibition in RMG-I – RMG-I cells, luciferase, cherry-pick, dose response (AID 687027).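 Note: luciferase reporter driven by Pax8 target thyroperoxidase promoter measured by SteadyGlo luminescence.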 Format: functional, cell-based.
Sequence of Paired box protein Pax-8 (Q06710 whole entry): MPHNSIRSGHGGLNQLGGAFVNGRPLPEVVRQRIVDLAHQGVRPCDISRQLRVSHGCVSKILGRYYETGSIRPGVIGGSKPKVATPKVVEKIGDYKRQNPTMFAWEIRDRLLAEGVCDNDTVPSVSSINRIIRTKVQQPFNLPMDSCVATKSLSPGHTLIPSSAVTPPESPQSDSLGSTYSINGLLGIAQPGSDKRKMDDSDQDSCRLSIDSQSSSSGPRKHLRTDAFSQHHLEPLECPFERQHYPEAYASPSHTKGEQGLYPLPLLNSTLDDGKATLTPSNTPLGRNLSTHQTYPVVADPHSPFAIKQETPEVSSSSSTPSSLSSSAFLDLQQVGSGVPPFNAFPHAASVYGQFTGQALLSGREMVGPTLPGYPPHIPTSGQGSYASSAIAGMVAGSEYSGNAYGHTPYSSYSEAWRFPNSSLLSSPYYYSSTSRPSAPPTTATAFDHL
A short description of assay [19]: viability of HCT116 lacking mutant beta-catenin – cell-based, human colon tumor, dose response (AID 1045).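 Note: HCT116 colon tumor cells with beta catenin knocked out; cells exposed to compound for 60 hours.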 The format is functional.
The nature of assay [20]: viability of PTEN-deleted HCT116 cells – cell-based, HCT116 PTEN knockout, dose response (AID 1047).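 Note: HCT116 colon tumor cells with PTEN knocked out; cells exposed to compound for 60 hours before readout; potency for loss of cell viability measured by luminescence.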 Format: functional.

Each structure is given as a SMILES string. Activity calls are given as the source filed them.

Sequence of FAD-linked sulfhydryl oxidase ALR (P55789 whole entry): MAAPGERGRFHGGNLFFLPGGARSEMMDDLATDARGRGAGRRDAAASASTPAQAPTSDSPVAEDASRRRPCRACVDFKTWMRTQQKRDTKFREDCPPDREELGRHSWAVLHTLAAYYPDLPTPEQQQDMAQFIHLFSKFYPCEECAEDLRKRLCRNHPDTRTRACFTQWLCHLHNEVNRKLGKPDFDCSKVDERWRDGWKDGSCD

The IC50 is the midpoint of a concentration-inhibition curve. Consider `COc1cccc(C(=O)NC(=S)Nc2ccc(N(C)C)cc2)c1`, for which the IC50 was 21 µM (active) in [1], 10.7 µM (active) on Caspase-3, 16.1 µM (active) in [2] and 6.14 µM (active) in assay [3].

The AC50 is the concentration giving half of the maximal activity seen. Consider `COC(=O)[C@@]1(C)[C@H]2C(=O)N(Cc3ccccc3)C(=O)[C@H]2[C@H]2CN=C(SCc3ccc(C#N)cc3)N21`, for which the AC50 in assay [4] is 0.609 µM (active); in [5] it was 1.09 µM (active); in assay [6] it was 0.785 µM (active); in assay [7], 0.566 µM (active).

Consider `O=C(Nc1ccc(S(=O)(=O)N2CCCCC2)cc1)C1CCCN(C(=O)c2ccc(Cl)cc2)C1` (centres undefined), for which the CC50 in assay [8] is > 40 µM (active).

Regarding `CN(C)c1ccc(NC(=O)Oc2ccccc2)cc1`, the IC50 is 78.1 µM (inactive) in assay [9] and > 100 µM (inactive) in assay [11]. Besides, the half-maximal activity concentration (AC50) in assay [10] is 1.88 µM (active).

Consider `CCOc1cc2c(cc1OCC)-n1cccc1C(c1ccc(C(C)C)cc1)NC2` (centres undefined), for which the AC50 in assay [12] is 67.7 µM (active); in assay [13], 4.99 µM (active); in assay [14] it was 11.4 µM (active); in assay [15], 7.22 µM (active). Besides, the CC50 in assay [16] was > 40 µM (active).

As to `O=C(Nc1ccc(F)cc1)N1CC(=O)N2[C@@H](CO)[C@@H](c3ccc(C#Cc4ccc(F)cc4)cc3)[C@@H]2C1`, the AC50 in [17] was > 70 µM (inactive); in assay [18], 16.2 µM (active); at Paired box protein Pax-8, 10.4 µM (active).

`COC(=O)c1ccc(-c2ccc(F)cc2)nc1C`: the IC50 in [1] is 64.9 µM (active); at Caspase-3, 13.2 µM (active); in [2] it was 31.9 µM (active); in assay [3] it was 8.25 µM (active).

With `C[C@H]1CN([C@@H](C)CO)C(=O)c2c(c3ccccc3n2C)-c2ccccc2CO[C@@H]1CN(C)S(=O)(=O)c1ccsc1`, the AC50 in [18] is 51.1 µM (active); at Paired box protein Pax-8 it was 3.6 µM (active).

Consider `CN(c1ccccc1)S(=O)(=O)c1ccc(Cl)c(C(=O)Nc2nc3ccccc3[nH]2)c1`, for which the AC50 in [4] was 5.66 µM (active); in assay [5] it was 5.75 µM (active); in assay [6], 1.6 µM (active); in assay [7] it was 3.18 µM (active).

As for `COc1ccc(/C=C2/CCCC(C(=O)C(F)(F)F)=C2O)cc1OC`, the CC50 in [8] is > 40 µM (active).

Regarding `CC(C)(C)NCCCOc1ccc(Cl)cc1C(C)(C)C`, the CC50 in assay [8] was 39.3 µM (active).

For the compound `COc1ccc(C(C(=O)NC(C)(C)C)N(CCC(C)C)C(=O)CCC(=O)Nc2cc(C)on2)cc1` (centres undefined), the AC50 was 22.8 µM (active) in [4], 16.6 µM (active) in assay [5], 18.1 µM (active) in assay [6] and 7.02 µM (active) in [7].

For the compound `CCOc1ccccc1Nc1cc(C)nc2ccccc12`, the AC50 is 48.6 µM (active) in assay [12], 5.31 µM (active) in [13] and 8.14 µM (active) in assay [15].

Regarding `CCOC(=O)C1(Cc2ccc(Cl)cc2)CCN(C(C)Cc2ccc(O)c(OC)c2)CC1` (centres undefined), the AC50 in [12] was 17.6 µM (active); in assay [13] it was 2.65 µM (active); in [15], 1.33 µM (active).

For orientation: EC50 means the midpoint of the concentration-response curve. `Cc1ccc(C(=O)c2sc3c(c2N)c(=O)[nH]c(=O)n3CCc2ccccc2)cc1`: the CC50 in assay [8] was 25.1 µM (active). The EC50 in [19] is 9.5 µM (active); in assay [20] it was 10.7 µM (active).

With `COc1ccccc1N1CCN(S(=O)(=O)c2ccc3[nH]c(-c4ccccc4)nc3c2)CC1`, the CC50 in assay [8] was > 40 µM (active).

Regarding `C[C@H](CO)N1C[C@H](C)[C@H](CN(C)C(=O)c2ccncc2)OCc2ccccc2-c2c(n(C)c3ccccc23)C1=O`, the concentration at half-maximal activity (AC50) in [4] was 33.1 µM (active); in assay [6] it was 4.23 µM (active); in assay [7], 9.94 µM (active).
